Source: patent publication US20100190815A1, “HYPERTENSION-AMELIORATING AGENT” (KYOWA HAKKO BIO CO., LTD., priority 2006, published 2010)

System: spontaneously hypertensive rats (SHRs)
Assay: Systolic blood pressure by the tail-cuff method in spontaneously hypertensive rats, oral administration once daily for 29 days
Type: in vivo, rat
Conditions: for Systolic blood pressure compared with the 1st (vehicle) group: 5 mg/kg (2nd group), from Day 8 to the end of the test period; for Systolic blood pressure: male SHR/Izm rats, mean ± standard error, n=6
Procedure: The rats used were spontaneously hypertensive rats (SHRs). The systolic blood pressure levels of 18 male SHR/Izm rats (10 week olds; Japan SLC, Inc.) were measured on Day 1 of administration. The rats were divided into 3 groups of 6 rats in a manner such that the mean values of the groups were almost equivalent to one another. The groups were referred to as the 1st to the 3rd groups. A 0.5 w/v % methylcellulose aqueous solution was orally administered to the rats in the 1st group. A 0.5 w/v % methylcellulose aqueous solution containing pyrroloquinoline quinone disodium salt (hereinafter, referred to as PQQ disodium salt; Mitsubishi Gas Chemical Company, Inc.) suspended therein (1 mg/mL) was orally administered to the rats in the 2nd group. A 0.5 w/v % methylcellulose aqueous solution containing PQQ disodium salt suspended therein (4 mg/mL) was orally administered to the rats in the 3rd group. Oral administration was carried out in a volume of 5 mL/kg once daily for 29 days. The single dose of PQQ disodium salt was 5 mg/kg in the 2nd group and the same was 20 mg/kg in the 3rd group. On Days 1, 8, 15, 22, and 29 of administration, systolic blood pressure was measured before administration (24 hours after administration on the previous day) and 4 hours after administration of the PQQ disodium salt. Systolic blood pressure was measured by the tail-cuff method with the use of an unheated non-invasive blood pressure monitor for mice and rats (MK-2000, Muromachi Kikai Co., Ltd.). Measurement was carried out 5 times per instance. The mean value of three systolic blood pressure values obtained by excluding the highest value and the lowest value was determined to be the value for an individual rat. The value for each group was expressed as the mean value±standard error (n=6). A statistically significant difference was obtained at each measurement point by carrying out one-way analysis of variance. When the significance was confirmed by one-way analysis of variance, a parametric Dunnett's multiple comparison test was carried so that a significant difference between the 2nd and the 1st group and between the 3rd group and the 1st group were obtained. In addition, in a case in which there was a significance level (p value) of less than 0.05, it was determined that there was a significant difference.

O=C(O)c1cc(C(=O)O)c2c(n1)C(=O)C(=O)c1cc(C(=O)O)[nH]c1-2.[Na].[Na] [PQQ disodium salt, pyrroloquinoline quinone disodium salt]
Systolic blood pressure compared with the 1st (vehicle) group (4 hours after administration): lower than that for the 1st group
Systolic blood pressure compared with the 1st (vehicle) group (before administration): lower than that for the 1st group
Systolic blood pressure compared with the 2nd (5 mg/kg) group (20 mg/kg (3rd group), 4 hours after administration): lower than that for the 2nd group
Systolic blood pressure compared with the 1st (vehicle) group, significance (20 mg/kg (3rd group), 4 hours after administration on Day 29, Dunnett's test, p < 0.05): significantly lower than that for the 1st group
Systolic blood pressure compared with the 2nd (5 mg/kg) group (20 mg/kg (3rd group), before administration): lower than that for the 2nd group
Hypertension-ameliorating effect in hypertension rats (overall conclusion) (SHR rats, 5 and 20 mg/kg oral once daily for 29 days): blood pressure-reducing effects, namely, hypertension-ameliorating effects, were observed
Systolic blood pressure (5 mg/kg oral once daily (2nd group), Day 1, 4 hours after administration): 172 ± 4 mmHg
Systolic blood pressure (5 mg/kg oral once daily (2nd group), Day 1, before administration (baseline)): 172 ± 3 mmHg
Systolic blood pressure (5 mg/kg oral once daily (2nd group), Day 8, 4 hours after administration): 175 ± 3 mmHg
Systolic blood pressure (5 mg/kg oral once daily (2nd group), Day 8, before administration (24 hours after previous dose)): 177 ± 3 mmHg
Systolic blood pressure (5 mg/kg oral once daily (2nd group), Day 15, 4 hours after administration): 184 ± 3 mmHg
Systolic blood pressure (5 mg/kg oral once daily (2nd group), Day 15, before administration (24 hours after previous dose)): 185 ± 3 mmHg
Systolic blood pressure (5 mg/kg oral once daily (2nd group), Day 22, 4 hours after administration): 189 ± 3 mmHg
Systolic blood pressure (5 mg/kg oral once daily (2nd group), Day 22, before administration (24 hours after previous dose)): 189 ± 3 mmHg
Systolic blood pressure (5 mg/kg oral once daily (2nd group), Day 29, 4 hours after administration): 190 ± 1 mmHg
Systolic blood pressure (5 mg/kg oral once daily (2nd group), Day 29, before administration (24 hours after previous dose)): 190 ± 1 mmHg
Systolic blood pressure (20 mg/kg oral once daily (3rd group), Day 1, 4 hours after administration): 171 ± 3 mmHg
Systolic blood pressure (20 mg/kg oral once daily (3rd group), Day 1, before administration (baseline)): 172 ± 3 mmHg
Systolic blood pressure (20 mg/kg oral once daily (3rd group), Day 8, 4 hours after administration): 171 ± 2 mmHg
Systolic blood pressure (20 mg/kg oral once daily (3rd group), Day 8, before administration (24 hours after previous dose)): 174 ± 2 mmHg
Systolic blood pressure (20 mg/kg oral once daily (3rd group), Day 15, 4 hours after administration): 180 ± 3 mmHg
Systolic blood pressure (20 mg/kg oral once daily (3rd group), Day 15, before administration (24 hours after previous dose)): 182 ± 3 mmHg
Systolic blood pressure (20 mg/kg oral once daily (3rd group), Day 22, 4 hours after administration): 184 ± 3 mmHg
Systolic blood pressure (20 mg/kg oral once daily (3rd group), Day 22, before administration (24 hours after previous dose)): 184 ± 3 mmHg
Systolic blood pressure (20 mg/kg oral once daily (3rd group), Day 29, 4 hours after administration, p < 0.05 relative to the 1st (vehicle) group): 184 ± 3 mmHg
Systolic blood pressure (20 mg/kg oral once daily (3rd group), Day 29, before administration (24 hours after previous dose)): 186 ± 3 mmHg
